Experimental data: PMC4636954 (Journal of ethnopharmacology, 2015)
Like-named read-outs stand apart in the source and are kept apart here.

Experiments:
κ opioid receptor = κ opioid receptor (Homo sapiens, UniProt P41145); experiment: κ opioid competitive radioligand binding; settings: for Opioid receptor displacement (%) κ: Tested at 10 µM
μ opioid receptor [1] = target: T1, μ opioid receptor (Homo sapiens, UniProt P35372); experiment: μ opioid competitive radioligand binding; settings: for Opioid receptor displacement (%) μ: Tested at 10 µM
δ opioid receptor [2] = target: T2, δ opioid receptor (Homo sapiens, UniProt P41143); experiment: δ opioid competitive radioligand binding; settings: for Opioid receptor displacement (%) δ: Tested at 10 µM
[3] = test system: Adult male Swiss Webster mice; experiment: Mouse tetrad assay; settings: for Catalepsy Latency / Hotplate Latency (% MPE) / Tail-Flick Latency (% MPE) / Rectal temperature (°C): 30 min post-injection; for Rectal temperature (°C): change in core body temperature
μ opioid receptor [4] = target: T1, μ opioid receptor; experiment: In vitro GTPγS functional assay, μ-opioid; format: biochemical
δ opioid receptor [5] = target: T2, δ opioid receptor; experiment: In vitro GTPγS functional assay, δ-opioid; format: biochemical
[6] = ip, dose not stated or 'lower doses' (10–100 mg/kg tested)

Molecule: Oc1ccc(CC2NCCc3cc(O)c(O)cc32)cc1 (racemic) [Compound 11, (±)-higenamine]
- Opioid receptor displacement (%) κ (κ opioid receptor): did not show any significant displacements
- Opioid receptor displacement (%) μ (μ opioid receptor [1]): did not show any significant displacements
- Opioid receptor displacement (%) δ (δ opioid receptor [2]): did not show any significant displacements

Molecule: COc1cc2c3c(c1OC)-c1ccccc1C[C@H]3N(C)CC2 [Compound 1, nuciferine]
- Catalepsy Latency ([3]; 10 mg/kg ip): 3.875 ± 2.32 s
- Hotplate Latency (% MPE) ([3]; 10 mg/kg ip): 6.99 ± 2.61 % MPE
- Tail-Flick Latency (% MPE) ([3]; 10 mg/kg ip): 11.69 ± 6.074 % MPE
- Rectal temperature (°C) ([3]; 10 mg/kg ip): −0.49 ± 0.31 °C
- Catalepsy Latency ([3]; 30 mg/kg ip): 1.750 ± 0.62 s
- Hotplate Latency (% MPE) ([3]; 30 mg/kg ip): 3.69 ± 3.01 % MPE
- Tail-Flick Latency (% MPE) ([3]; 30 mg/kg ip): 18.43 ± 10.50 % MPE
- Rectal temperature (°C) ([3]; 30 mg/kg ip): −0.91 ± 0.31 °C
- Catalepsy Latency ([3]; 75 mg/kg ip): 3.500 ± 1.07 s
- Hotplate Latency (% MPE) ([3]; 75 mg/kg ip): 0.68 ± 2.73 % MPE
- Tail-Flick Latency (% MPE) ([3]; 75 mg/kg ip): 19.45 ± 6.16 % MPE
- Rectal temperature (°C) ([3]; 75 mg/kg ip): −1.68 ± 0.38 °C
- Catalepsy Latency ([3]; 100 mg/kg ip): 1.500 ± 0.27 s
- Hotplate Latency (% MPE) ([3]; 100 mg/kg ip): 21.78 ± 7.16 % MPE
- Tail-Flick Latency (% MPE) ([3]; 100 mg/kg ip): 14.14 ± 15.52 % MPE
- Rectal temperature (°C) ([3]; 100 mg/kg ip): −3.8 ± 0.57 °C
- Behavioral effects in tetrad assay (in words) ([3]; 100 mg/kg/ip): only decreased locomotion and hypothermia at the same dose, but failed to display catalepsy and antinociceptive activity
- Behavioral effects in tetrad assay (in words) [3, 6]: failed to show any cataleptic effect or toxicity in the form of tremors and convulsions

Molecule: COc1cc2c(cc1OC)C(Cc1ccc(O)cc1)N(C)CC2 (stereo not shown) [Compound 4, armepavine]
- Ki (κ opioid receptor; read-out: κ Ki (µM) ± SEM): 13 ± 1.4 µM
- Ki (μ opioid receptor [1]; read-out: μ Ki (µM) ± SEM): 2.7 ± 0.8 µM
- Ki (δ opioid receptor [2]; read-out: δ Ki (µM) ± SEM): 23.8 ± 3.7 µM

Molecule: COc1cc2c(cc1O)[C@@H](Cc1ccc(O)cc1)N(C)CC2 [Compound 6, N-methylcoclaurine]
- Ki (κ opioid receptor; read-out: κ Ki (µM) ± SEM): 0.9 ± 0.1 µM
- Ki (μ opioid receptor [1]; read-out: μ Ki (µM) ± SEM): 4 ± 0.5 µM
- Ki (δ opioid receptor [2]; read-out: δ Ki (µM) ± SEM): 20.1 ± 3.1 µM

Molecule: COc1cc2c(cc1O)C(Cc1ccc(O)cc1)NCC2 (stereo not shown) [Compound 7, coclaurine]
- Ki (κ opioid receptor): 2.2 ± 0.2 µM
- Ki (μ opioid receptor [1]): 5 ± 0.7 µM
- Catalepsy Latency ([3]; 10 mg/kg ip): 1.25 ± 0.25 s
- Hotplate Latency (% MPE) ([3]; 10 mg/kg ip): 10.15 ± 4.45 % MPE
- Tail-Flick Latency (% MPE) ([3]; 10 mg/kg ip): 16.57 ± 7.23 % MPE
- Rectal temperature (°C) ([3]; 10 mg/kg ip): 0.17 ± 0.08 °C
- Catalepsy Latency ([3]; 30 mg/kg ip): 2.37 ± 0.59 s
- Hotplate Latency (% MPE) ([3]; 30 mg/kg ip): 5.46 ± 5.05 % MPE
- Tail-Flick Latency (% MPE) ([3]; 30 mg/kg ip): 1.43 ± 6.95 % MPE
- Rectal temperature (°C) ([3]; 30 mg/kg ip): 0.1 ± 0.15 °C
- Catalepsy Latency ([3]; 75 mg/kg ip): 1.75 ± 0.41 s
- Hotplate Latency (% MPE) ([3]; 75 mg/kg ip): 15.49 ± 3.57 % MPE
- Tail-Flick Latency (% MPE) ([3]; 75 mg/kg ip): 13.95 ± 5.01 % MPE
- Rectal temperature (°C) ([3]; 75 mg/kg ip): −0.39 ± 0.05 °C
- Catalepsy Latency ([3]; 100 mg/kg ip): 1.25 ± 0.25 s
- Hotplate Latency (% MPE) ([3]; 100 mg/kg ip): 6.08 ± 1.9 % MPE
- Tail-Flick Latency (% MPE) ([3]; 100 mg/kg ip): 10.07 ± 3.31 % MPE
- Rectal temperature (°C) ([3]; 100 mg/kg ip): −0.58 ± 0.23 °C
- Behavioral effects in tetrad assay (in words) [3, 6]: did not influence any significant behavioral effects with the exception of weak locomotor activity
- Ki (δ opioid receptor [2]): 21.1 ± 2 µM

Molecule: COc1ccc(C[C@@H]2c3cc(Oc4cc(C[C@@H]5c6cc(OC)c(OC)cc6CCN5C)ccc4O)c(OC)cc3CCN2C)cc1 [Compound 10, neferine]
- EC50 (μ opioid receptor [4]): > 21 µM
- Functional character at μ opioid receptor by GTPγS assay (μ opioid receptor [4]; in words): weak μ partial agonist
- Ki (κ opioid receptor): 3.3 ± 0.4 µM
- EC50 (δ opioid receptor [5]): 7.9 ± 2.1 µM
- Ki (μ opioid receptor [1]): 1.8 ± 0.2 µM
- Ki (δ opioid receptor [2]): 0.7 ± 0.1 µM

Molecule: COc1ccc(C[C@@H]2c3cc(OC)c(OC)cc3CCN2C)cc1 [Compound 12, 4´-O-methylarmepavine]
- Opioid receptor displacement (%) κ (κ opioid receptor): did not show any significant displacements
- Opioid receptor displacement (%) μ (μ opioid receptor [1]): did not show any significant displacements
- Opioid receptor displacement (%) δ (δ opioid receptor [2]): did not show any significant displacements

Molecule: COc1ccc(CC2c3cc(OC)c(OC)cc3CCN2C)cc1 (stereo not shown) [Compound 13, 4´,7-di-O-methylarmepavine]
- Opioid receptor displacement (%) κ (κ opioid receptor): did not show any significant displacements
- Opioid receptor displacement (%) μ (μ opioid receptor [1]): did not show any significant displacements
- Opioid receptor displacement (%) δ (δ opioid receptor [2]): did not show any significant displacements

Molecule: CCCCC/C=C\C/C=C\CCCCCCCC(=O)O [Linoleic acid (LA), linoleic acid]
- Ki (δ opioid receptor [2]): 14.5 ± 2.4 µM

Molecule: CCCCCCCCCCCCCCCC(=O)O [Palmitic acid (PA), palmitic acid]
- Ki (δ opioid receptor [2]): > 21.1 µM

Molecule: O-methylcoclaurine [Compound 5]
- Ki (κ opioid receptor; read-out: κ Ki (µM) ± SEM): 3.5 ± 0.3 µM
- Ki (μ opioid receptor [1]; read-out: μ Ki (µM) ± SEM): 2 ± 0.3 µM
- Ki (δ opioid receptor [2]; read-out: δ Ki (µM) ± SEM): 22.6 ± 3.9 µM
